Patent publication US8088775B2, “Pharmaceutical composition for treating hair loss” (priority 2004, dated 2012)
Values joined by “and” are separate entries in the source; they are usually repeats but may differ in a detail not shown here. Equal entries are not always repeated.

Legend:
[1] = tested on: prostate glands of castrated male SD rats; experiment: Anti-androgenic active effects in castrated male SD rats: weight of prostate glands after TP or DHTP inducement; format: in vivo; conditions: hormone alone hypodermic (TP 10 μg or DHTP 20 μg) + vehicle oral, one week, solvent control 23.3±1.5 mg
Procedure: In-Vivo Experiment for the Observation of Anti-Androgenic Active Effects of Castrated Male SD Rats (1)
(§1) Each compound is administered orally continuously for one week according to the method of administration shown in Table 1, prostate glands are removed from the rats in each group while watching, and their weights are measured.

[2] = Body weight of castrated male SD rats after one week; conditions: hormone alone (TP 10 μg or DHTP 20 μg) + vehicle oral, solvent control 122.1
Procedure: as §1

hair loss = conditions: external application; cited from earlier work

CCC(=O)O[C@H]1CC[C@H]2[C@@H]3CC[C@H]4CC(=O)CC[C@]4(C)[C@H]3CC[C@]12C [DHTP, dihydrotestosterone propionate]
Average weight of prostate glands, prostatic hyperplasia inducement group [1]: 58.4 ± 2.0 mg and 58.4 mg | Average body weight, inducement group [2]: 118.7

Nc1cc(N2CCCCC2)nc(N)[n+]1[O-] [Minoxidil, 6-(1-piperidinyl-2,4-pyrimidineamine-3-oxide)]
Reported side effects (hair loss): contact dermatitis, dried mouth, lowering of blood pressure, dizziness
